Assay results from US3985875A, “ω-(N-acylamino)alkylphosphoryl ethanolamines, pharmaceutical compositions containing them, and their uses” (Dainippon Pharmaceutical Co., Ltd., priority 1974, dated 1976).

Tests used:
renal hypertensive rats [1] = assay: Antihypertensive activity in renal hypertensive rats, i.m. (Table 3); assay type: in vivo, rat; conditions: 30 mg/kg/day i.m.
Method: (§1) An aqueous solution or suspension in peanut oil of each test compound as administered intramuscularly (i.m.) or orally (p.o.) at a dose of 30 to 100 mg/kg (body weight)/day once every morning over the period of 6 to 7 days.
(§2) The blood pressure of each rat was measured daily before and 5 hours after each administration. Furthermore, the blood pressure was measured every morning after drug withdrawal over a period of 3 to 6 days.
(§3) Test compounds (1)-(4) decreased the blood pressure of renal hypertensive rats with a dose of 30 mg/kg/day i.m.. […] The antihypertensive rats with a dose of 100 mg/kg/day p.o..

Renin = biological target: T1, Renin (Homo sapiens, UniProt P00797); assay: Renin-inhibitory activity, Method I (inhibition of Angiotensin I formation, RIA); assay type: biochemical; conditions: Table 2; 37°C, 4 hours, 1.25 mg/ml; read-out: Rate of inhibiting the formation of Angiotensin I determined by Method I
T1 sequence (P00797 67-406): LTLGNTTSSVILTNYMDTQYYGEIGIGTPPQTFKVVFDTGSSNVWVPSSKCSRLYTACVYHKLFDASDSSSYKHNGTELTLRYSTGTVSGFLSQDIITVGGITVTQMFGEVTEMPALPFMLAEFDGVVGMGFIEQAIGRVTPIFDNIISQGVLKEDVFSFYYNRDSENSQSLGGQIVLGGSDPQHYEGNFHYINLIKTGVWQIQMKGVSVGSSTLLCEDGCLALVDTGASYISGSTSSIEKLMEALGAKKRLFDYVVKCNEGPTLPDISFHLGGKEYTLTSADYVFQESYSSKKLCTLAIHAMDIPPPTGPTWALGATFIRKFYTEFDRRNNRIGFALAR
Method: Renin (see E. Haas et al. Circulation Research, Vol. 19, p. 739, 1966 and Vol. 31, p. 65, 1972) was incubated in Angiotensinogen at 37° C. for 2 to 6 hours. Similarly, renin was incubated under the same conditions in the presence of 0.313 to 2.5 mg/ml. of each of the test compounds listed above. The amount of Angiotensin I was measured by radioimmunoassay (RIA) (E. Haber et al., J. Clin. Endocrinol., Vol. 29, p. 1349, 1969), and made the renin activity.
(§4) The results are shown in Table 1 (the rate of inhibiting the formation of Angiotensin I, as determined by Method I, when the plasma was incubated at 37° C. for 2, 4 and 6 hours respectively), and Table 2 (the rate of inhibiting the formation of Angiotensin I when the plasma was incubated at 37° C. for 4 hours, with the compound concentration of 1.25 mg/ml.)

High renin plasma = biological target: T2, High renin plasma (Canis lupus familiaris, UniProt Q6DYE7); assay: Renin-inhibitory activity, Method II (high renin plasma of dog, inhibition of Angiotensin I formation); assay type: biochemical; conditions: Table 2; 37°C, 4 hours, 1.25 mg/ml; read-out: Rate of inhibiting the formation of Angiotensin I determined by Method II
T2 construct: High renin plasma prepared by constriction of the renal artery of a dog anesthetized with Nembutal; from tissue; host or cells: plasma of a dog with constricted renal artery
T2 sequence (Q6DYE7 66-403): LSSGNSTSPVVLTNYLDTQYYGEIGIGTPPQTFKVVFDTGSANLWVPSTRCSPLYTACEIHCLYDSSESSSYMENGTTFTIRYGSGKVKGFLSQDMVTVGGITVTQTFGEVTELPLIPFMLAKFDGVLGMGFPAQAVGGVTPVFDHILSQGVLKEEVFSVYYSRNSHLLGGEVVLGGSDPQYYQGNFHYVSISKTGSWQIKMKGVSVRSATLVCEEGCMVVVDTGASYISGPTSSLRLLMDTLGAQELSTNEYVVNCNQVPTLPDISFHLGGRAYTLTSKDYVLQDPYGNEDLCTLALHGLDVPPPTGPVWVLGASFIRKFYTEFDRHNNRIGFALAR
Method: High renin plasma prepared by constriction of the renal artery of a dog anesthetized with Nembutal (the plasma which when incubated at 37°40 C. for 6 hours, yields 30 to […]. of Angiotensin I) was incubated at 37° C. for 2 to 6 hours in the same way as in Method I, and also under the same conditions in the presence of 1.25 mg/ml. of each of the test compounds.
as §4

renal hypertensive rats [2] = assay: Antihypertensive activity in rats, p.o. (Table 4); assay type: in vivo, rat; conditions: 100 mg/kg/day p.o.
Method: as §1, §2, §3

[3] = 1st day, 0 h (immediately before administration)
[4] = 1st day, 5 hours after administration
[5] = 2nd day, 0 h (immediately before administration)
[6] = 2nd day, 5 hours after administration
[7] = 3rd day, 0 h (immediately before administration)
[8] = 3rd day, 5 hours after administration
[9] = 4th day, 0 h (immediately before administration)
[10] = 4th day, 5 hours after administration
[11] = 5th day, 0 h (immediately before administration)
[12] = 5th day, 5 hours after administration
[13] = 6th day, 0 h (immediately before administration)
[14] = 6th day, 5 hours after administration
[15] = 7th day, 0 h (immediately before administration)
[16] = 7th day, 5 hours after administration

| inhibition at 1250 µg/mL (Renin) | inhibition at 1250 µg/mL (High renin plasma) | Compound | Changes of blood pressure after drug withdrawal (renal hypertensive rats [1]; 1st day after withdrawal) | Changes of blood pressure (renal hypertensive rats [1]; [3]) | Changes of blood pressure (renal hypertensive rats [1]; [4]) | Changes of blood pressure after drug withdrawal (renal hypertensive rats [1]; 2nd day after withdrawal) | Changes of blood pressure (renal hypertensive rats [1]; [5]) | Changes of blood pressure (renal hypertensive rats [1]; [6]) | Changes of blood pressure after drug withdrawal (renal hypertensive rats [1]; 3rd day after withdrawal) | Changes of blood pressure (renal hypertensive rats [1]; [7]) | Changes of blood pressure (renal hypertensive rats [1]; [8]) | Changes of blood pressure (renal hypertensive rats [1]; [9]) | Changes of blood pressure (renal hypertensive rats [1]; [10]) | Changes of blood pressure (renal hypertensive rats [1]; [11]) | Changes of blood pressure (renal hypertensive rats [1]; [12]) | Changes of blood pressure (renal hypertensive rats [1]; [13]) | Changes of blood pressure (renal hypertensive rats [1]; [14]) | Changes of blood pressure after drug withdrawal (renal hypertensive rats [2]; 1st day after withdrawal) | Changes of blood pressure (renal hypertensive rats [2]; [3]) | Changes of blood pressure (renal hypertensive rats [2]; [4]) | other results |
| --- | --- | --- | --- | --- | --- | --- | --- | --- | --- | --- | --- | --- | --- | --- | --- | --- | --- | --- | --- | --- | --- |
| 61% | 50% | CCC=CCC=CCC=CCCCCCCCC(=O)NCCOP(=O)(O)OCCN [(1), 2-(Octadeca-9,12,15-trienoylamino)ethylphosphoryl ethanolamine] | -21 mmHg | 0 mmHg | -17 mmHg | -13 mmHg | -6 mmHg | -33 mmHg | -4 mmHg | -8 mmHg | -35 mmHg | -16 mmHg | -37 mmHg | -20 mmHg | -35 mmHg | -24 mmHg | -35 mmHg |  |  |  |  |
| 25% | 21% | CCCCCC=CCC=CCCCCCCCC(=O)NCCOP(=O)(O)OCCN [(3), 2-(Octadeca-9,12-dienoylamino)ethylphosphoryl ethanolamine] | -39 mmHg | 0 mmHg | -12 mmHg | -8 mmHg | -1 mmHg | -9 mmHg | -1 mmHg | -8 mmHg | -17 mmHg | -23 mmHg | -38 mmHg | -27 mmHg | -39 mmHg | -35 mmHg | -48 mmHg |  |  |  |  |
| 29% | 24% | CCCCCC=CCC=CCCCCCCCC(=O)NCCCOP(=O)(O)OCCN [(4), 3-(Octadeca-9,12-dienoylamino)propylphosphoryl ethanolamine] | -29 mmHg | 0 mmHg | -15 mmHg | -12 mmHg | -7 mmHg | -20 mmHg | -2 mmHg | -12 mmHg | -27 mmHg | -22 mmHg | -37 mmHg | -28 mmHg | -41 mmHg | -27 mmHg | -41 mmHg |  |  |  |  |
| 64% | 52% | NCCOP(=O)(O)OCCCNC(=O)COc1ccc(Oc2ccc(Cl)cc2)cc1 [(7), 3-[4-(4'-chlorophenoxy)phenoxyacetylamino]propylphosphoryl ethanolamine] |  |  |  |  |  |  |  |  |  |  |  |  |  |  |  | -19 mmHg | 0 mmHg | -6 mmHg | Changes of blood pressure after drug withdrawal (renal hypertensive rats [2]; 2nd day after withdrawal): -11 mmHg; Changes of blood pressure (renal hypertensive rats [2]; [5]): -3 mmHg; Changes of blood pressure (renal hypertensive rats [2]; [6]): -10 mmHg; Changes of blood pressure after drug withdrawal (renal hypertensive rats [2]; 3rd day after withdrawal): -5 mmHg; Changes of blood pressure (renal hypertensive rats [2]; [7]): -3 mmHg; Changes of blood pressure (renal hypertensive rats [2]; [8]): -18 mmHg; Changes of blood pressure after drug withdrawal (renal hypertensive rats [2]; 4th day after withdrawal): -5 mmHg; Changes of blood pressure (renal hypertensive rats [2]; [9]): -10 mmHg; Changes of blood pressure (renal hypertensive rats [2]; [10]): -19 mmHg; Changes of blood pressure after drug withdrawal (renal hypertensive rats [2]; 5th day after withdrawal): -3 mmHg; Changes of blood pressure (renal hypertensive rats [2]; [11]): -10 mmHg; Changes of blood pressure (renal hypertensive rats [2]; [12]): -21 mmHg; Changes of blood pressure after drug withdrawal (renal hypertensive rats [2]; 6th day after withdrawal): -1 mmHg; Changes of blood pressure (renal hypertensive rats [2]; [13]): -11 mmHg; Changes of blood pressure (renal hypertensive rats [2]; [14]): -25 mmHg; Changes of blood pressure (renal hypertensive rats [2]; [15]): -18 mmHg; Changes of blood pressure (renal hypertensive rats [2]; [16]): -28 mmHg |

| Compound | inhibition at 1250 µg/mL (Renin) | inhibition at 1250 µg/mL (High renin plasma) | Changes of blood pressure after drug withdrawal (renal hypertensive rats [1]; 1st day after withdrawal) | Changes of blood pressure (renal hypertensive rats [1]; [3]) | Changes of blood pressure (renal hypertensive rats [1]; [4]) | Changes of blood pressure after drug withdrawal (renal hypertensive rats [1]; 2nd day after withdrawal) | Changes of blood pressure (renal hypertensive rats [1]; [5]) | Changes of blood pressure (renal hypertensive rats [1]; [6]) | Changes of blood pressure after drug withdrawal (renal hypertensive rats [1]; 3rd day after withdrawal) | Changes of blood pressure (renal hypertensive rats [1]; [7]) | Changes of blood pressure (renal hypertensive rats [1]; [8]) | Changes of blood pressure (renal hypertensive rats [1]; [9]) | Changes of blood pressure (renal hypertensive rats [1]; [10]) | Changes of blood pressure (renal hypertensive rats [1]; [11]) | Changes of blood pressure (renal hypertensive rats [1]; [12]) | Changes of blood pressure (renal hypertensive rats [1]; [13]) | Changes of blood pressure (renal hypertensive rats [1]; [14]) | Changes of blood pressure after drug withdrawal (renal hypertensive rats [2]; 1st day after withdrawal) | Changes of blood pressure (renal hypertensive rats [2]; [3]) | Changes of blood pressure (renal hypertensive rats [2]; [4]) | other results |
| --- | --- | --- | --- | --- | --- | --- | --- | --- | --- | --- | --- | --- | --- | --- | --- | --- | --- | --- | --- | --- | --- |
| CC(Oc1ccc(Oc2ccc(Cl)cc2)cc1)C(=O)NCCCOP(=O)(O)OCCN (stereo not drawn) [(8), 3-{α-[4-(4'-chlorophenoxy)phenoxy]propionylamino} propylphosphoryl ethanolamine] | 67% | 51% |  |  |  |  |  |  |  |  |  |  |  |  |  |  |  | -22 mmHg | 0 mmHg | +4 mmHg | Changes of blood pressure after drug withdrawal (renal hypertensive rats [2]; 2nd day after withdrawal): -12 mmHg; Changes of blood pressure (renal hypertensive rats [2]; [5]): +5 mmHg; Changes of blood pressure (renal hypertensive rats [2]; [6]): -1 mmHg; Changes of blood pressure after drug withdrawal (renal hypertensive rats [2]; 3rd day after withdrawal): -5 mmHg; Changes of blood pressure (renal hypertensive rats [2]; [7]): -6 mmHg; Changes of blood pressure (renal hypertensive rats [2]; [8]): -13 mmHg; Changes of blood pressure after drug withdrawal (renal hypertensive rats [2]; 4th day after withdrawal): +2 mmHg; Changes of blood pressure (renal hypertensive rats [2]; [9]): -10 mmHg; Changes of blood pressure (renal hypertensive rats [2]; [10]): -16 mmHg; Changes of blood pressure after drug withdrawal (renal hypertensive rats [2]; 5th day after withdrawal): +1 mmHg; Changes of blood pressure (renal hypertensive rats [2]; [11]): -10 mmHg; Changes of blood pressure (renal hypertensive rats [2]; [12]): -16 mmHg; Changes of blood pressure after drug withdrawal (renal hypertensive rats [2]; 6th day after withdrawal): +1 mmHg; Changes of blood pressure (renal hypertensive rats [2]; [13]): -9 mmHg; Changes of blood pressure (renal hypertensive rats [2]; [14]): -23 mmHg; Changes of blood pressure (renal hypertensive rats [2]; [15]): -13 mmHg; Changes of blood pressure (renal hypertensive rats [2]; [16]): -25 mmHg |
